Like-named read-outs stand apart in the source and are kept apart here. Starred links: 1 amine or outer side, 2 acyl side, 3 side chain; linkers in the order of their positions; H or OH if unused. Non-standard residues stand in square brackets, D forms with d. Residues, ends and D or L forms follow the SMILES beside them. Groups on a side chain read outwards from the residue. *: point of attachment. Camptothecin(7-Et) = CCc1c2c(nc3ccccc13)-c1cc3c(c(=O)n1C2)COC(=O)[C@@]3(CC)O*; EuK = O=C(O)CC[C@H](NC(=O)N[C@@H](CCCCN*)C(=O)O)C(=O)O; Deacetylacetazolamide = NS(=O)(=O)c1nnc(N*)s1; Suc = O=C(CCC(=O)[*:2])[*:1]; PEG3 = NCCOCCOCCOCCC(=O)O; CO = O=C([*:1])[*:2]
Tests used:
Assay in all cases: Cytotoxicity in vitro in the presence and absence of elastase (MTT assay)
Assay type in all cases: cell-based
786-O = 786-O cells, 72 h incubation
Protocol: (§1) Cultivation of cells was performed according to standard procedures with the media recommended by the provider. The cells, in a total volume of 100 μL, were seeded in a 96-well plate with a white bottom (#3610). After a 24 h incubation period at 37° C. and 5% CO2, the medium was exchanged by adding 90 μL fresh medium. The treatment started by adding the test compound in 10 μL of culture medium to the cells in triplicates. Concentrations ranging from 10^−5 M to 10^−13 M were chosen. Two identically treated sets of samples were prepared. One set was treated with the test compound alone, whereas to the second set the compound and 10 nM elastase (NE) was added followed by a 72 h incubation period at 37° C. and 5% CO2. The proliferation was detected using the MTT assay (ATCC). At the end of the incubation period the MTT reagent was added to all samples for 4h. Lysis of the cells followed by addition of the detergent was done overnight. The formed dye was detected at 570 nm. The proliferation of untreated but otherwise identically handled cells was defined as the 100% value. The dose response curves allowed the determination of the respective IC50 values. […]

NCI-H292 = NCI-H292 cells, 72 h incubation
Protocol: as §1

SUM149PT = SUM149PT cells, 72 h incubation
Protocol: as §1

HT29 = HT29 cells, 72 h incubation
Protocol: as §1

[1] = compound alone, read-out: IC50 without neutrophil elastase
[2] = with 10 nM elastase (NE), read-out: IC50 with neutrophil elastase

SMILES	IC50 (786-O; [1])	IC50 (786-O; [2])	IC50 (NCI-H292; [1])	IC50 (NCI-H292; [2])	IC50 (SUM149PT; [1])	IC50 (SUM149PT; [2])	IC50 (HT29; [1])	IC50 (HT29; [2])
CC(C)[C@H](NC(=O)[C@@H]1CCCN1C(=O)[C@H](CC(=O)O)NC(=O)CCOCCOCCOCCNC(=O)CCC(=O)Nc1nnc(S(N)(=O)=O)s1)C(=O)N=[S@](C)(=O)Cc1cc2nc(c1)OCCCOc1cc(F)ccc1-c1cc(ncc1F)N2 (relative stereo) [Compound 10, sodium 1-{(2S)-2-(carboxylatomethyl)-4,17,20-trioxo-20-[(5-sulfamoyl-1,3,4-thiadiazol-2-yl)amino]-7,10,13-trioxa-3,16-diazaicosanan-1-oyl}-L-prolyl-N—[(R*)—{[15,19-difluoro-3,4-dihydro-2H,11H-10,6-(azeno)-12,16-(metheno)-1,5,11,13-benzodioxadiazacyclooctadecin-8-yl]methyl}(methyl)oxo-lambda6-sulfanylidene]-L-valinamide]	> 1000 nM	1 to 9.9 nM	100 to 999 nM	1 to 9.9 nM	100 to 999 nM	1 to 9.9 nM	> 1000 nM	1 to 9.9 nM
CCCNC(=O)Nc1cccc(S(=O)(=O)Nc2cccc([C@@H](CC(=O)O)NC(=O)Nc3ccc(NC(=O)NCCOCCOCCOCCC(=O)N[C@@H](CCC(=O)NCCOCCOCCOCCC(=O)N[C@@H](CC(=O)O)C(=O)N4CCC[C@H]4C(=O)N[C@H](C(=O)O[C@]4(CC)C(=O)OCc5c4cc4n(c5=O)Cc5c-4nc4ccccc4c5CC)C(C)C)C(=O)NCCOCCOCCOCCC(=O)N[C@@H](CC(=O)O)C(=O)N4CCC[C@H]4C(=O)N[C@H](C(=O)O[C@]4(CC)C(=O)OCc5c4cc4n(c5=O)Cc5c-4nc4ccccc4c5CC)C(C)C)cc3)c2)c1 [Compound 3]	100 to 999 nM	1 to 9.9 nM	100 to 999 nM	1 to 9.9 nM	10 to 99 nM	1 to 9.9 nM	100 to 999 nM	1 to 9.9 nM
CCc1c2c(nc3ccccc13)-c1cc3c(c(=O)n1C2)COC(=O)[C@@]3(CC)OC(=O)[C@@H](NC(=O)[C@@H]1CCCN1C(=O)[C@H](CC(=O)O)NC(=O)CCOCCOCCOCCNC(=O)CCC(=O)Nc1nnc(S(N)(=O)=O)s1)C(C)C [Compound 4, sodium (4S)-4,11-diethyl-3,14-dioxo-3,4,12,14-tetrahydro-1H-pyrano[3′,4′:6,7]indolizino[1,2-b]quinolin-4-yl 1-{(2S)-2-(carboxylatomethyl)-4,17,20-trioxo-20-[(5-sulfamoyl-1,3,4-thiadiazol-2-yl)amino]-7,10,13-trioxa-3,16-diazaicosanan-1-oyl}-L-prolyl-L-valinate]	100 to 999 nM	1 to 9.9 nM	100 to 999 nM	1 to 9.9 nM	100 to 999 nM	1 to 9.9 nM	> 1000 nM	10 to 99 nM
CCc1c2c(nc3ccccc13)-c1cc3c(c(=O)n1C2)COC(=O)[C@@]3(CC)OC(=O)[C@@H](NC(=O)[C@@H]1CCCN1C(=O)[C@H](CC(=O)O)NC(=O)CCOCCOCCOCCNC(=O)[C@H](CCCCNC(=O)CCOCCOCCOCCNC(=O)NCCCC[C@H](NC(=O)N[C@@H](CCC(=O)O)C(=O)O)C(=O)O)NC(=O)CCOCCOCCOCCNC(=O)NCCCC[C@H](NC(=O)N[C@@H](CCC(=O)O)C(=O)O)C(=O)O)C(C)C [Compound 7, heptasodium (4S)-4,11-diethyl-3,14-dioxo-3,4,12,14-tetrahydro-1H-pyrano[3′,4′:6,7]indolizino[1,2-b]quinolin-4-yl 1-[(2S)-15-{[N2,N6-bis(3S,7S)(1,3,7-tricarboxylato-5,13,26-trioxo-17,20,23-trioxa-4,6,12,14-tetraazahexacosan-26-yl)-L-lysyl]amino}-2-(carboxylatomethyl)-4-oxo-7,10,13-trioxa-3-azapentadecanan-1-oyl]-L-prolyl-L-valinate] ({EuK-CO-PEG3}-K([PEG3-CO-EuK])[PEG3]DPV-{Camptothecin(7-Et)})	100 to 999 nM	1 to 9.9 nM	100 to 999 nM	1 to 9.9 nM	100 to 999 nM	1 to 9.9 nM	> 1000 nM	10 to 99 nM
CCc1c2c(nc3ccccc13)-c1cc3c(c(=O)n1C2)COC(=O)[C@@]3(CC)OC(=O)[C@@H](NC(=O)[C@@H]1CCCN1C(=O)[C@H](CC(=O)O)NC(=O)CCOCCOCCOCCNC(=O)[C@H](CCCCNC(=O)CCOCCOCCOCCNC(=O)CCC(=O)Nc1nnc(S(N)(=O)=O)s1)NC(=O)CCOCCOCCOCCNC(=O)CCC(=O)Nc1nnc(S(N)(=O)=O)s1)C(C)C [Compound 8, sodium (4S)-4,11-diethyl-3,14-dioxo-3,4,12,14-tetrahydro-1H-pyrano[3′,4′:6,7]indolizino[1,2-b]quinolin-4-yl 1-[(2S)-15-[(N2,N6-bis{14,17-dioxo-17-[(5-sulfamoyl-1,3,4-thiadiazol-2-yl)amino]-4,7,10-trioxa-13-azaheptadecanan-1-oyl}-L-lysyl)amino]-2-(carboxylatomethyl)-4-oxo-7,10,13-trioxa-3-azapentadecanan-1-oyl]-L-prolyl-L-valinate] ({Deacetylacetazolamide-Suc-PEG3}-K([PEG3-Suc-Deacetylacetazolamide])[PEG3]DPV-{Camptothecin(7-Et)})	> 1000 nM	10 to 99 nM	> 1000 nM	10 to 99 nM	> 1000 nM	10 to 99 nM	> 1000 nM	10 to 99 nM
CC[C@@]1(OC(=O)[C@@H](NC(=O)[C@@H]2CCCN2C(=O)[C@H](CC(=O)O)NC(=O)CCOCCOCCOCCNC(=O)NCCCC[C@H](NC(=O)N[C@@H](CCC(=O)O)C(=O)O)C(=O)O)C(C)C)C(=O)OCc2c1cc1n(c2=O)Cc2c-1nc1cc(F)c(C)c3c1c2[C@@H](N)CC3 [Compound 11, tetrasodium (1S,9S)-1-amino-9-ethyl-5-fluoro-4-methyl-10,13-dioxo-2,3,9,10,13,15-hexahydro-1H,12H-benzo[de]pyrano[3′,4′:6,7]indolizino[1,2-b]quinolin-9-yl 1-[(2S,23S,27S)-23,27,29-tricarboxylato-2-(carboxylatomethyl)-4,17,25-trioxo-7,10,13-trioxa-3,16,18,24,26-pentaazanonacosanan-1-oyl]-L-prolyl-L-valinate]	100 to 999 nM	1 to 9.9 nM	100 to 999 nM	1 to 9.9 nM	100 to 999 nM	1 to 9.9 nM	> 1000 nM	10 to 99 nM
CC[C@@]1(OC(=O)[C@@H](NC(=O)[C@@H]2CCCN2C(=O)[C@H](CC(=O)O)NC(=O)CCOCCOCCOCCNC(=O)CCC(=O)Nc2nnc(S(N)(=O)=O)s2)C(C)C)C(=O)OCc2c1cc1n(c2=O)Cc2c-1nc1cc(F)c(C)c3c1c2[C@@H](N)CC3 [Compound 12, sodium (1S,9S)-1-amino-9-ethyl-5-fluoro-4-methyl-10,13-dioxo-2,3,9,10,13,15-hexahydro-1H,12H-benzo[de]pyrano[3′,4′:6,7]indolizino[1,2-b]quinolin-9-yl 1-{(2S)-2-(carboxylatomethyl)-4,17,20-trioxo-20-[(5-sulfamoyl-1,3,4-thiadiazol-2-yl)amino]-7,10,13-trioxa-3,16-diazaicosanan-1-oyl}-L-prolyl-L-valinate]	100 to 999 nM	1 to 9.9 nM	100 to 999 nM	1 to 9.9 nM	100 to 999 nM	1 to 9.9 nM	> 1000 nM	10 to 99 nM
CCCNC(=O)Nc1cccc(S(=O)(=O)Nc2cccc([C@@H](CC(=O)O)NC(=O)Nc3ccc(NC(=O)NCCOCCOCCOCCC(=O)N[C@@H](CC(N)=O)C(=O)N4CCC[C@H]4C(=O)N[C@H](C(=O)NCCCN(C(=O)CO)[C@@H](c4cc(-c5cc(F)ccc5F)cn4Cc4ccccc4)C(C)(C)C)C(C)C)cc3)c2)c1 [Compound 16, N^2-(14-{4-[({(1R)-2-carboxy-1-[3-({3-[(propylcarbamoyl)amino]benzene-1-sulfonyl}amino)phenyl]ethyl}carbamoyl)amino]anilino}-14-oxo-4,7,10-trioxa-13-azatetradecanan-1-oyl}-L-asparaginyl-L-prolyl-N-{3-[{(1R)-1-[1-benzyl-4-(2,5-difluorophenyl)-1H-pyrrol-2-yl]-2,2-dimethylpropyl}(hydroxyacetyl)amino]propyl}-L-valinamide]	> 1000 nM	1 to 9.9 nM	100 to 999 nM	1 to 9.9 nM	100 to 999 nM	0.1 to 1 nM	> 1000 nM	1 to 9.9 nM

Source: patent US20260183405A1, “SMALL MOLECULE-DRUG-CONJUGATES CLEAVABLE IN A TUMOR MICROENVIRONMENT” (priority 2022, published 2026)
